Read-outs that look alike come from different tables or passages of the source.
Columns and labels:
[1] = biological target: BAX (Homo sapiens, UniProt Q07812); test: liposome release assay, tBID-induced BAX activation in liposomal membranes; type: biochemical
Text: FIG. 8. BAI compounds tested in BAX inhibition assay using tBID-induced BAX activation in liposomal membranes.
These compounds were hypothesized, but never shown, to work through BAX inhibition (19, 20). Accordingly, it was first investigated whether several of these small molecules inhibit BAX-mediated permeabilization of artificial membranes of similar lipid composition to the outer mitochondrial membrane (OMM). A liposome release assay (21), in which liposomes that contain a fluorophore are created, was used. Incorporation of tBID-activated BAX into the liposome membrane stimulates release of the fluorophore, providing a system to study BAX-mediated membrane permeabilization in isolation of other mitochondrial and cellular factors.
IC50 were predicted based on of “Normalized inhibition values” correlated with measured IC50 values.

[2] = biological target: recombinant, purified BAX (Homo sapiens, UniProt Q07812); test: BAX binding by 1H-NMR and 15N-1H HSQC NMR; details: not shown
[3] = tested on: neonatal rat cardiomyocytes (NRCM); test: hypoxia-induced death of primary neonatal cardiomyocytes (calcein AM / ethidium homodimer); type: cell-based; details: for inhibition of hypoxia-induced neonatal cardiomyocyte death: percentage of EthD positive cells
Protocol: (§1) FIG. 6A-6C. […] Cell death was assessed using calcein AM (alive) and ethidium homodimer (dead) staining. (C) BAI1 inhibits hypoxia-induced loss of inner mitochondrial membrane potential (Δψm) in neonatal cardiomyocytes.
FIG. 20A-20B. […] Quantification of percentage of TUNEL positive cells. […] BAI-1 dose response. Percentage of dead cells represents percentage of ethidium homodimer-1 (EthD) positive cells.
FIG. 21A-21C. BAI-A1, BAI-A2 and BAI-A21 inhibit cardiomyocyte necrotic cell death. NRCM were pre-treated with varying concentrations of BAI-A1 (A), BAI-A2 (B) or BAI-A21 (C) and cultured under normoxic or hypoxic conditions. Percentage of dead cells represents percentage of EthD positive cells.

[4] = tested on: Adult rat cardiomyocytes; test: hypoxia/reoxygenation-induced death of adult cardiomyocytes; type: cell-based
Protocol: as §1
FIG. 22A-22B. […] Percentage of dead cells represents percentage of EthD positive cells.

[5] = plasma protein binding, mouse plasma; type: in vitro ADME
[6] = biological target: T1, BAX (Mus musculus, UniProt Q07813); test: BAX activation during MI/R in vivo, 6A7 antibody immunostaining; details: 45 min ischemia/6 h reperfusion, 6A7 immunostaining
T1 construct: from tissue; host or cells: heart (myocardium) after 45 min ischemia/6 h reperfusion
Protocol: Accordingly, the ability of BAI-A1 to inhibit BAX activation during MI/R was tested in vivo (FIG. 7). […] The pharmacokinetics of BAI-A1 were measured in the mouse by injecting 1 mg/kg into a cohort of mice and harvesting plasma and heart tissue 0, 1, 6, and 24 h.

[7] = pharmacokinetics of BAI-A1 in the mouse; type: in vivo; details: other: injection (type of injection not given), 1 mg/kg
Protocol: Accordingly, the ability of BAI-A1 to inhibit BAX activation during MI/R was tested in vivo (FIG. 7). […] This was assessed following 45 min ischemia/6 h reperfusion, the time point that BAX is activated maximally in the absence of drug. It was concluded that BAI-A1 can access myocardial cells and is effective at inhibiting BAX activation during MI/R in vivo. The pharmacokinetics of BAI-A1 were measured in the mouse by injecting 1 mg/kg into a cohort of mice and harvesting plasma and heart tissue 0, 1, 6, and 24 h.

[8] = pharmacokinetic properties, half-life in plasma; type: in vivo
[9] = biological target: T1, BAX; test: STS-induced BAX translocation to mitochondria (immunostaining of BAX puncta); type: cell-based; details: data not shown
Protocol: A key event in BAX activation is exposure of α helix 9 containing a transmembrane domain that inserts tightly into the outer mitochondrial membrane (OMM). BAX insertion into the OMM can be assessed by treating isolated mitochondria with strong alkali, which separates loosely attached proteins from mitochondria but fails to extract membrane-inserted proteins. […] One important result of BAX conformational activation is its translocation from cytosol to mitochondria. […] Translocation was assessed by immunostaining for mitochondrial BAX puncta. […] (Data not shown.)

[10] = tested on: mouse embryonic fibroblasts; test: TNFα-induced BAX-mediated apoptotic cell death; type: cell-based; details: data not shown
[11] = plasma protein binding, rats; type: in vitro ADME; details: rat
[12] = BAI-A22 pharmacokinetics in rats, non-compartmental analysis; type: in vivo; details: rat, plasma, iv, male Sprague Dawley rats, 1 mg/kg intravenously, NCA
Protocol: FIG. 11A-11B. BAI-A22 pharmacokinetics. BAI-A22 was injected intravenously in male Sprague Dawley® rats at 1 mg/kg dose and blood plasma and heart tissue were collected at different time points, and drug levels measured by LC-MS/MS. (A) Average BAI-A22 concentrations in blood plasma. (B) Average BAI-A22 concentrations in heart tissue.
Pharmacokinetic parameters from non-compartmental analysis using WinNonLin software. C0: maximum plasma concentration extrapolated to t=0; tmax: time of maximum plasma concentration; t1/2: half-life; MRTlast: mean residence time, calculated to the last observable time point; CL: clearance; Vss: steady state volume of distribution; AUClast: area under the curve, calculated to the last observable time point; AUC∞: area under the curve, extrapolated to infinity. Materials and Methods for the Chemical Syntheses

[13] = tested on: mouse embryonic fibroblasts; test: apoptosis in mouse embryonic fibroblasts (FIG. 18); type: cell-based; details: doxorubicin-induced per text, STS or ABT-737 per legend
Text: FIG. 18. […] Apoptosis was induced with either staurosporine (STS) or pro-apoptotic ABT-737 drug.

[14] = acute doxorubicin heart failure model in mice; type: in vivo, mouse; details: doxorubicin 20 mg/kg i.p. single; inhibitor 2 mg/kg i.p. single
[15] = chronic doxorubicin-induced cardiomyopathy mouse model; type: in vivo; details: doxorubicin 3 mg/kg IP x8, inhibitor 2 mg/kg
Text: FIG. 25A-25B. […] (A) Hearts were collected from mice in the chronic doxorubicin model and sectioned to stain for the apoptosis marker, TUNEL. Percentage of TUNEL positive nuclei per field. (B) Hearts were collected from mice in the chronic doxorubicin model and sectioned to immunostain for HMGB1, loss of which indicates necrosis. Percentage of nuclei that lost HMGB1 per field.
Patients typically receive several “cycles” of doxorubicin administered at lower doses. The exact protocol depends on the cancer being treated. For example, some leukemias are treated with 4 cycles of 60 mg/m^2 (which would be the equivalent of 1.5 mg/kg) IV administered every 21-28 days. […] Based on this experience, a chronic protocol was used in which mice receive 3 mg/kg doxorubicin IP every other day×8 doses (i.e. over a two-week period) for a cumulative dose of 24 mg/kg.

[16] = predicted from normalized inhibition values (5 and 10 μM, normalized to BAI1) correlated with measured IC50 values, read-out: Predicted IC50/μM
[17] = liposome release, minimum of 4 inhibitor concentrations around the IC50, read-out: Measured IC 50/μM

T1 sequence (Q07813 whole entry, the tested form may be a part): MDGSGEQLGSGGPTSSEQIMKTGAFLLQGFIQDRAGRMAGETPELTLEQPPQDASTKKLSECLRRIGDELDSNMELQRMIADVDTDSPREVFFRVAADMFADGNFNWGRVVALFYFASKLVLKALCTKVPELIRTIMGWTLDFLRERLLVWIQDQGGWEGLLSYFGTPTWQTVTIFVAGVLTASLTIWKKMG
Sequence of BAX (Homo sapiens, UniProt Q07812) (Q07812 whole entry): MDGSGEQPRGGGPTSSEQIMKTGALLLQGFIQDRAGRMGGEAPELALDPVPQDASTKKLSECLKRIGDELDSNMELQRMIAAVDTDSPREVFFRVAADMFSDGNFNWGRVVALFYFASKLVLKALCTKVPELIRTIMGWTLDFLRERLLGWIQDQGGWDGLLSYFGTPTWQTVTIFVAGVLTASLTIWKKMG
Sequence of recombinant, purified BAX (Q07812 whole entry): as above

OCCNCC(O)Cn1c2ccc(Br)cc2c2cc(Br)ccc21 (stereo not drawn) [BAI-A12]
IC50 [1, 16]: 8.8 µM

OCCN1CCN(CCCN2c3ccccc3Sc3ccccc32)CC1 [BAI-A15]
IC50 [1, 17]: 6 µM
IC50 [1, 16]: 11.7 µM

OCCN(CCO)CC(O)Cn1c2ccc(Cl)cc2c2cc(Cl)ccc21 (stereo not drawn) [BAI-A9]
IC50 [1, 16]: 9.7 µM

OCC(O)Cn1c2ccc(Br)cc2c2cc(Br)ccc21 (stereo not drawn) [BAI-A10]
IC50 [1, 16]: 10.8 µM

OC(CN1CCN(CCCc2ccccc2)CC1)Cn1c2ccc(Br)cc2c2cc(Br)ccc21 (stereo not drawn) [BAI-3]
inhibition of membrane permeabilization induced by tBID-activated BAX ([1]; FIG. 2): not effective to inhibit tBID-induced BAX activation
fluorophore release by compound alone ([1]; compound alone, without BAX/tBID): do not stimulate fluorophore release

OCCN(CCO)CC(O)CN1c2ccccc2Sc2ccccc21 (stereo not drawn) [BAI-A14]
IC50 [1, 16]: 15.3 µM

O=C(O)CCn1c2ccc(Br)cc2c2cc(Br)ccc21 [BAI-A11]
IC50 [1, 16]: 10.4 µM

OC(CN1CCNCC1)Cn1c2ccc(F)cc2c2cc(F)ccc21 (stereo not drawn) [BAI-A16]
IC50 [1, 17]: 18 µM

OC(CN1CCNCC1)Cn1c2ccccc2c2ccccc21 (stereo not drawn) [BAI-A1]
IC50 [1, 17]: 40 µM
IC50 [1, 16]: > 20 µM
BAX binding relative to BAI-1 [2]: less BAX binding than BAI-1
ability to protect neonatal cardiomyocytes against hypoxia, versus BAI-1 ([3]; not shown): only modestly decreased
inhibition of hypoxia-induced neonatal cardiomyocyte death [3]: inhibit necrosis in cardiomyocytes in a dose-dependent manner
inhibition of adult cardiomyocyte necrosis ([4]; hypoxia and reoxygenation (H/R)): inhibit necrosis in cardiomyocytes in a dose-dependent manner
ability to protect adult cardiomyocytes against hypoxia/reoxygenation, versus BAI-1 ([4]; not shown): only modestly decreased
fraction unbound [5]: 0.106
BAX conformational activation in vivo [6]: potently blocks BAX conformational activation
half-life ([7]; heart tissue, read-out: half-life in heart tissue (converted)): ~3.5 h
half-life ([7]; plasma, read-out: half-life in plasma (converted)): ~3.5 h
half-life [8]: 3.5 h

OC(CN1CCNCC1)CN(c1ccccc1)c1ccc(Br)cc1 (stereo not drawn) [BAI-A22, 1-((4-bromophenyl)(phenyl)amino)-3-(piperazin-1-yl)propan-2-ol]
IC50 [1, 17]: 11 µM
BAX translocation to the mitochondria [9]: A similar result was observed
nuclear fragmentation [10]: Nuclear fragmentation was also inhibited
inhibition of hypoxia-induced neonatal cardiomyocyte death [3]: potently inhibits primary neonatal cardiomyocyte death induced by hypoxia
fraction unbound [11]: 0.044
AUC(0-t) ([12]; parameter and unit are drawings, read-out: AUClast: area under the curve, calculated to the last observable time point): 390 ± 42.7 ng·h/mL
MRT last ([12]; parameter and unit are drawings, read-out: MRTlast: mean residence time, calculated to the last observable time point): 2.15 h
Tmax ([12]; parameter and unit are drawings, read-out: tmax: time of maximum plasma concentration): 0 h
Vd ([12]; parameter is a drawing, read-out: Vss: steady state volume of distribution): 10.5 L/kg
AUC(0-inf) ([12]; unit is a drawing): 524 ng·h/mL
Cmax ([12]; unit is a drawing): 318 ng/mL
clearance ([12]; unit is a drawing): 31.8 mL/min/kg
half-life ([12]; unit is a drawing): 5.04 h
C0 ([12]; unit is a drawing, read-out: C0: maximum plasma concentration extrapolated to t=0): 318 ng/mL
half-life [8]: 5 h
apoptosis in mouse embryonic fibroblasts [13]: inhibits doxorubicin-induced apoptosis in mouse embryonic fibroblasts
heart function (ejection fraction) in doxorubicin-treated mice [14]: therapeutically effective
cardiac dysfunction (fractional shortening, ejection fraction, systolic wall thickening) [15]: significantly protected the heart from cardiac dysfunction

OC(CN1CCNCC1)CN(c1ccc(Br)cc1)c1ccc(Br)cc1 (stereo not drawn) [BAI-A21]
IC50 [1, 17]: 4.5 µM
inhibition of hypoxia-induced neonatal cardiomyocyte death [3]: inhibit necrosis in cardiomyocytes in a dose-dependent manner

OC(CN1CCNCC1)Cn1c2ccc(C(F)(F)F)cc2c2cc(C(F)(F)F)ccc21 (stereo not drawn) [BAI-A18]
IC50 [1, 17]: 15 µM

Cc1cn(CC(O)CN2CCNCC2)c2ccccc12 (stereo not drawn) [BAI-A20]
IC50 [1, 17]: > 100 µM
inhibition of hypoxia-induced neonatal cardiomyocyte death [3]: does not

Cc1ccc2c(c1)c1cc(C)ccc1n2CC(O)CN1CCNCC1 (stereo not drawn) [BAI-A17]
IC50 [1, 17]: 27 µM

Cc1ccc(N(CC(O)CN2CCNCC2)c2ccc(C)cc2)cc1 (stereo not drawn) [BAI-A19]
IC50 [1, 17]: 26 µM
inhibition of hypoxia-induced neonatal cardiomyocyte death [3]: potently inhibits primary neonatal cardiomyocyte death induced by hypoxia
BAX conformational activation in vivo [6]: inhibition of BAX activation in vivo

CN1CCN(CC(O)CN2c3ccccc3Sc3ccccc32)CC1 (stereo not drawn) [BAI-A13]
IC50 [1, 17]: 13 µM
IC50 [1, 16]: 13.8 µM

Source: patent US11938128B2, “Small molecule BAX inhibitors and uses thereof” (Albert Einstein College of Medicine, priority 2017, dated 2024)
